Among the data in ChEMBL document CHEMBL5649166, “RIP3 induces apoptosis independent of pronecrotic kinase activity” (Mol Cell, 2014) are residual activity values, retold here.

Assay [1] deals with T1, Tyrosine-protein kinase TXK (Homo sapiens) (UniProt P42681).
T1 sequence (whole entry): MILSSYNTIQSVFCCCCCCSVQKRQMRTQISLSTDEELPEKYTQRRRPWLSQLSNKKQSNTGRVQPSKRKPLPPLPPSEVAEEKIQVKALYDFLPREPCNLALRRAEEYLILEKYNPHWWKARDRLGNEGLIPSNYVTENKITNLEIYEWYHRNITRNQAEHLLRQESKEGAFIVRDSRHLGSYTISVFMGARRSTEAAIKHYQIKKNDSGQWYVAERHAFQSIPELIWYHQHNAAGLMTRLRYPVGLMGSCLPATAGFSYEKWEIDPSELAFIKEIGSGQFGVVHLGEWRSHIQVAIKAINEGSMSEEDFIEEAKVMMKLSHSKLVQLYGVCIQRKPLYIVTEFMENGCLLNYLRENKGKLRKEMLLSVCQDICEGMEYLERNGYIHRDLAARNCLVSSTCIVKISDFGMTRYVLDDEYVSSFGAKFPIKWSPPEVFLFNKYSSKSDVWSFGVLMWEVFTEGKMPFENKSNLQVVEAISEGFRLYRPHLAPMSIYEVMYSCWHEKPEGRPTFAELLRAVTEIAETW
The assay is described as follows: Inhibition of human TXK using EAIYAAPFAKKK as substrate at 1 uM in presence of 32P-ATP by Hotspot assay relative to control; values are per cent of control.

The target of assay [2] is T2, Phosphorylase b kinase gamma catalytic chain, liver/testis isoform (Homo sapiens) (UniProt P15735).
T2 sequence (whole entry): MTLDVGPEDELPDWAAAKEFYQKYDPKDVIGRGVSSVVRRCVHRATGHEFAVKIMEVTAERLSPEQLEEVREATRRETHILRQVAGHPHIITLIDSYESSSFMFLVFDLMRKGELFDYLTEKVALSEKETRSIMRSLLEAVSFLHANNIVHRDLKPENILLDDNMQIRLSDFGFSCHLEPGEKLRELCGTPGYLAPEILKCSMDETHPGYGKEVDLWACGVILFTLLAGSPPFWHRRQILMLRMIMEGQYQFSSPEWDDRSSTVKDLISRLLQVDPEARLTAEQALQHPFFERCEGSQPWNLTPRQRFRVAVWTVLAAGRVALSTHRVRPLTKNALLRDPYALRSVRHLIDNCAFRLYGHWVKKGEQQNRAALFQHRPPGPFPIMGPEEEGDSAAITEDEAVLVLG
Briefly: Inhibition of human PHKg2 using KKLNRTLSFAEPG as substrate at 1 uM in presence of 32P-ATP by Hotspot assay relative to control; values are per cent of control.

The target of assay [3] is Calcium/calmodulin-dependent protein kinase type 1 (Homo sapiens) (UniProt Q14012). Briefly: Inhibition of human CAMK1a using KKALRRQETVDAL as substrate at 1 uM in presence of 32P-ATP by Hotspot assay relative to control; values are per cent of control.
Sequence of Calcium/calmodulin-dependent protein kinase type 1 (Homo sapiens) (Q14012 whole entry, looked up): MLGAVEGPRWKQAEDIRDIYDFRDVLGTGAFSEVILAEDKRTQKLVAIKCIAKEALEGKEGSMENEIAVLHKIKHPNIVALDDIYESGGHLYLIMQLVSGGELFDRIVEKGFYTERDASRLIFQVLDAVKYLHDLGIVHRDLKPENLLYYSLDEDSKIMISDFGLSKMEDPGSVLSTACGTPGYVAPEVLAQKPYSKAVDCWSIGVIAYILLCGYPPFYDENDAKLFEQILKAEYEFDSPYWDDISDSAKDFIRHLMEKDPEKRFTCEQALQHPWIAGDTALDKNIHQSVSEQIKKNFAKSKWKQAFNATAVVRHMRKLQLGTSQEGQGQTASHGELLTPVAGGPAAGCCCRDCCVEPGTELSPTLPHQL
In assay [4] the target is RAC-beta serine/threonine-protein kinase (Homo sapiens) (UniProt P31751). The assay is described as follows: Inhibition of human AKT2 using KGSGSGRPRTSSFAEG as substrate at 1 uM in presence of 32P-ATP by Hotspot assay relative to control; values are per cent of control.
Sequence of RAC-beta serine/threonine-protein kinase (Homo sapiens) (P31751 whole entry, canonical isoform): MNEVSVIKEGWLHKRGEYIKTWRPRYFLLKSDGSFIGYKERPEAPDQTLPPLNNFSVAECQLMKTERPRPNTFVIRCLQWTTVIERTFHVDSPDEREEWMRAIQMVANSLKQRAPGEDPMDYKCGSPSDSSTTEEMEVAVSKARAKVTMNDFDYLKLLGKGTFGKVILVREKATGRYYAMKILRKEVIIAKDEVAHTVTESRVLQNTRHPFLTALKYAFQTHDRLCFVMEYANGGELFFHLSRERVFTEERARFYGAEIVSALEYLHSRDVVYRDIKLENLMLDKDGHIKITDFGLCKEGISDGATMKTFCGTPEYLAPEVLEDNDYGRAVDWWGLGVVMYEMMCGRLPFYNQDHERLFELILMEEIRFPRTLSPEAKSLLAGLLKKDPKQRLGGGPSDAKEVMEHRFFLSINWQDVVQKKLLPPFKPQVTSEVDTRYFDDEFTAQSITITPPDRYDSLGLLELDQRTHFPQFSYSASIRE
Assay [5] deals with Casein kinase I isoform delta (Homo sapiens) (UniProt P48730). The assay is described as follows: Inhibition of human CK1d using KRRRAL[pS]VASLPGL as substrate at 1 uM in presence of 32P-ATP by Hotspot assay relative to control; values are per cent of control.
Sequence of Casein kinase I isoform delta (Homo sapiens) (P48730 whole entry, looked up, canonical isoform): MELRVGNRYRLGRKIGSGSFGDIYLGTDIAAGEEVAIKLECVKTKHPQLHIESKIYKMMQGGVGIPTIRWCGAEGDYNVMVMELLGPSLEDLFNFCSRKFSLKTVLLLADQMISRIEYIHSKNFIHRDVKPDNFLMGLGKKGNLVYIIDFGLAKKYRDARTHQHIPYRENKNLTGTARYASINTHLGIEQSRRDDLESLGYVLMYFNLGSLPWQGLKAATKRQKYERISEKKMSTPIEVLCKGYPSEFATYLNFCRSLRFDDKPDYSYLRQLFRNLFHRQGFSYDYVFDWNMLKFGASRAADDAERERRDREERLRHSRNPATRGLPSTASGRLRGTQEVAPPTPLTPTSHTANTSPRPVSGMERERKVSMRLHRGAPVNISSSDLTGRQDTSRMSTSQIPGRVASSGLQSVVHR
The target of assay [6] is T3, Serine/threonine-protein kinase Nek2 (Homo sapiens) (UniProt P51955).
T3 sequence (whole entry): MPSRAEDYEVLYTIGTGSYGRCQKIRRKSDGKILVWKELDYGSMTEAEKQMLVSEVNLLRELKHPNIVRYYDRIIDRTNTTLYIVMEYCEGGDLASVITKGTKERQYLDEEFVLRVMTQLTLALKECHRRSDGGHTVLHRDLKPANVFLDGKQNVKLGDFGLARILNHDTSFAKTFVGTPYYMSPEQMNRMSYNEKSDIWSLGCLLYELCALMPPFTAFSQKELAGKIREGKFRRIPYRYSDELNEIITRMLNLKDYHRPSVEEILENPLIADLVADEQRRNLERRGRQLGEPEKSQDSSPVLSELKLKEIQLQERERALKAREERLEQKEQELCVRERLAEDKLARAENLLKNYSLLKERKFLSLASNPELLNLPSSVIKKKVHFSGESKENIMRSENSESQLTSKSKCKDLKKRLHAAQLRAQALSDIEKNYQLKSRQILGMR
The assay is described as follows: Inhibition of human NEK2 using myelin basic protein as substrate at 1 uM in presence of 32P-ATP by Hotspot assay relative to control; values are per cent of control.

Assay [7] deals with Homeodomain-interacting protein kinase 2 (Homo sapiens) (UniProt Q9H2X6). The assay is described as follows: Inhibition of human HIPK2 using myelin basic protein as substrate at 1 uM in presence of 32P-ATP by Hotspot assay relative to control; values are per cent of control.
Sequence of Homeodomain-interacting protein kinase 2 (Homo sapiens) (Q9H2X6 whole entry, looked up): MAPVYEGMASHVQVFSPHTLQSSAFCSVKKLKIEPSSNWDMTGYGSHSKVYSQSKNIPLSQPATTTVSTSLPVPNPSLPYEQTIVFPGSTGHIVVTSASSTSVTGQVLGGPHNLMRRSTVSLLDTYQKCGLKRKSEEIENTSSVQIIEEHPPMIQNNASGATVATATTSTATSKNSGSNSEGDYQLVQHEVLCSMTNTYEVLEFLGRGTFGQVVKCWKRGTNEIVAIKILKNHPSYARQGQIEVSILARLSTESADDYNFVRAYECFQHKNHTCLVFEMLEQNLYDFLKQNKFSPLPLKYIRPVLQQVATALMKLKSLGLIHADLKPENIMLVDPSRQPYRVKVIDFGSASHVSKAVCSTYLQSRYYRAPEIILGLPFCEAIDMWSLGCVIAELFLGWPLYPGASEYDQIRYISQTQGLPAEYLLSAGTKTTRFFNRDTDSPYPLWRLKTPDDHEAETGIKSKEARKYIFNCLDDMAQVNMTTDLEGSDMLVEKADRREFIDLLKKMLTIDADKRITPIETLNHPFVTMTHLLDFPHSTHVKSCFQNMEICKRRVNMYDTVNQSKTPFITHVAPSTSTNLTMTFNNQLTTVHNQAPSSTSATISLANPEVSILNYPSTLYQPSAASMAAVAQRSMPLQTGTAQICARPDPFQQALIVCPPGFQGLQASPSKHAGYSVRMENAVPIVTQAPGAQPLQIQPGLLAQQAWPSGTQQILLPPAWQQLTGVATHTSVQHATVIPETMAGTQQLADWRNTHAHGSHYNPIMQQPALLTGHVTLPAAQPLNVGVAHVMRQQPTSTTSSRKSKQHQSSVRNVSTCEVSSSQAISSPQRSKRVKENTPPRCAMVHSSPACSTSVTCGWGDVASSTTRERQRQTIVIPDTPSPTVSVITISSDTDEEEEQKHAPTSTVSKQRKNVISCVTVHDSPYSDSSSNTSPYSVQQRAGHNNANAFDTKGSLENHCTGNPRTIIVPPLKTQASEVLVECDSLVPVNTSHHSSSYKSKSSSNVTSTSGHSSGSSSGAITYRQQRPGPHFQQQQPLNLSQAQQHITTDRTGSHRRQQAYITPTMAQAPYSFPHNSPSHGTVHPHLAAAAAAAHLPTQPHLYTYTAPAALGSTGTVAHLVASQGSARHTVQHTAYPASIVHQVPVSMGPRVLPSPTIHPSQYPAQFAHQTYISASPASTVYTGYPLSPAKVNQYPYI
For assay [8], the target named is T4, Megakaryocyte-associated tyrosine-protein kinase (Homo sapiens) (UniProt P42679).
T4 sequence (whole entry): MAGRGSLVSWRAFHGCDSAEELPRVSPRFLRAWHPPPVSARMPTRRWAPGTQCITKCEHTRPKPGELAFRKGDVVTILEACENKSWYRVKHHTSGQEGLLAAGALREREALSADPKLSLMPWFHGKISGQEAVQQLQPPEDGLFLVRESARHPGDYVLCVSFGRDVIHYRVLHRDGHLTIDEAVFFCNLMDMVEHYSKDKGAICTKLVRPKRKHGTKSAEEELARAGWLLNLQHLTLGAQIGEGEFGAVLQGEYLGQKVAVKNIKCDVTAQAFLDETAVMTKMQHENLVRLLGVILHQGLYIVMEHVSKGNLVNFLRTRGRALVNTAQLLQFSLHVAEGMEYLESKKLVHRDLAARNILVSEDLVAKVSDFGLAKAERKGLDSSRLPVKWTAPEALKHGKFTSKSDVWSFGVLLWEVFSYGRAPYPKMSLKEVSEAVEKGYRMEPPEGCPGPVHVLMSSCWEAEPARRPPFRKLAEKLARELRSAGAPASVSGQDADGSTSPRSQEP
The assay is described as follows: Inhibition of human CTK/MATK using poly[Glu:Tyr] (4:1) as substrate at 1 uM in presence of 32P-ATP by Hotspot assay relative to control; values are per cent of control.

Regarding `Cc1cc(-c2cnc(N)c3c(-c4ccc5scnc5c4)csc23)n(C)n1`, the residual activity in assay [1] was 33.2%; in assay [2], 95.4%; in assay [3] it was 97.4%; in assay [4], 95.4%; in assay [5], 84.6%; in assay [6] it was 101%. Moreover, the values for the residual activity in assay [7] and in assay [8] were 95.9% and 79.2%, respectively.

As for `CC(C)S(=O)(=O)c1ccc2nccc(Nc3ccc4scnc4c3)c2c1`, the residual activity in assay [1] worked out at 47.4%; in assay [2], 98.2%; in assay [3], 92.1%; in assay [4], 89%; in assay [5], 104%; in assay [6], 100%. Further, the figures for the residual activity in assay [7] and in assay [8] were 101% and 98.5%, respectively.

Consider `CNC(=O)c1ccc2c(c1)ncn2-c1ccc(CC(=O)OC(C)(C)C)cc1`, for which the residual activity in assay [1] is 84.2%; in assay [2], 100%; in assay [3] it was 95%; in assay [4], 96.8%; in assay [5], 101%; in assay [6] it was 102%. Further, the residual activity in assay [7] worked out at 88.1%; in assay [8], 93.7%.

As a reminder, the residual activity is the signal under treatment as a percentage of the control signal.
